A short description of test [1]: Inhibition of rice alpha-glucosidase. Also on record: species or system Oryza sativa.
Test [2] concerns the target Sucrase-isomaltase, intestinal (Rattus norvegicus, UniProt P23739). The test can be described thus: Inhibition of Wistar rat intestinal sucrase.
Test [3] can be described thus: Inhibition of Caldocellum saccharolyticum beta-glucosidase. Details: species or system Caldicellulosiruptor saccharolyticus.
A short description of test [4]: Inhibition of bovine liver beta-galactosidase. Also on record: species or system Bos taurus.
Test [5] addresses Lactase/phlorizin hydrolase (Rattus norvegicus, UniProt Q02401). The test can be described thus: Inhibition of Wistar rat intestinal lactase.
Test [6] in a line: Inhibition of Wistar rat intestinal alpha alpha-trehalase.
Test [7] addresses Sucrase-isomaltase, intestinal (Rattus norvegicus) (UniProt P23739). To be noted: Wistar, 1000 uM.
Description: Inhibition of Wistar rat intestinal isomaltase at 1000 uM
Test [8] concerns the target T1, Uncharacterized protein (Sus scrofa) (UniProt I3LIR5).
T1 sequence (whole entry): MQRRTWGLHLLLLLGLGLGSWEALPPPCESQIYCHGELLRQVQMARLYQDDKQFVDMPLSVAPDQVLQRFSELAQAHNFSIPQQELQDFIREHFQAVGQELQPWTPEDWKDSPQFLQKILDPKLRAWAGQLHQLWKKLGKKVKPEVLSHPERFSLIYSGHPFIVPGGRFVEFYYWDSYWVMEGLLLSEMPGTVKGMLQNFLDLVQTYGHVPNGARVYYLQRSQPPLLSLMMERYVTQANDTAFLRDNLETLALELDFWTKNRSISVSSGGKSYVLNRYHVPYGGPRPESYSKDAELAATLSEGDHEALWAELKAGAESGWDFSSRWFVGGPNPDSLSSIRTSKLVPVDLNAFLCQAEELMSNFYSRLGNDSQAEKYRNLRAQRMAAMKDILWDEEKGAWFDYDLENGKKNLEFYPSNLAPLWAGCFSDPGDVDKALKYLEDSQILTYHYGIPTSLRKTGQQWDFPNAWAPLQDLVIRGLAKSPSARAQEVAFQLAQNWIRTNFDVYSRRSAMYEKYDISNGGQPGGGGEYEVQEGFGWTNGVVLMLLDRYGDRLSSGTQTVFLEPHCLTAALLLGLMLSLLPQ
To be noted: 1000 uM.
Description: Inhibition of pig kidney alpha alpha-trehalase at 1000 uM

Test [9] can be described thus: Inhibition of almond beta-glucosidase. Also on record: species or system Prunus dulcis.
The nature of test [10]: Inhibition of yeast alpha-glucosidase. Details: species or system Saccharomyces cerevisiae.
Test [11] deals with Sucrase-isomaltase, intestinal (Rattus norvegicus) (UniProt P23739). To be noted: Wistar, 1000 uM. The source holds these as a separate data set.
Description: Inhibition of Wistar rat intestinal sucrase at 1000 uM
In test [12] the target is T2, Tissue alpha-L-fucosidase (Bos taurus, UniProt Q2KIM0).
T2 sequence (Q2KIM0 whole entry): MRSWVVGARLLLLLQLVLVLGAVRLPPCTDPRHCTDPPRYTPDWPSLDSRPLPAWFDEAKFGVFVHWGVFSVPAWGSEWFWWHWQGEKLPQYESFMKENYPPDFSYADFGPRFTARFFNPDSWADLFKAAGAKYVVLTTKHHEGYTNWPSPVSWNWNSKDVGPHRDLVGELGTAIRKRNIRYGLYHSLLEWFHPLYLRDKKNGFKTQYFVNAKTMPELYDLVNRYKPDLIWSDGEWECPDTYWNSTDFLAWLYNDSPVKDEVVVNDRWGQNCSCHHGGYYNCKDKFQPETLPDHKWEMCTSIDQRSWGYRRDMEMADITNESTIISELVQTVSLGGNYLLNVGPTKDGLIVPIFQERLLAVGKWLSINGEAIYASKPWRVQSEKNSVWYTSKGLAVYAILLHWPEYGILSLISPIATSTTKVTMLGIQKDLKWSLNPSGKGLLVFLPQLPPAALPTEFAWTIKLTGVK
Put plainly: Inhibition of bovine epididymis alpha-L-fucosidase at 1000 uM.

Test [13] has as its system Oryza sativa. To be noted: 1000 uM.
Description: Inhibition of rice alpha-glucosidase at 1000 uM
Test [14] addresses Lysosomal alpha-glucosidase (Rattus norvegicus) (UniProt Q6P7A9). To be noted: Wistar, 1000 uM.
Description: Inhibition of Wistar rat intestinal maltase at 1000 uM
The target is the same in test [15]. To be noted: Wistar, 1000 uM. This is another data set of the same source.
Description: Inhibition of Wistar rat liver lysosomal alpha-glucosidase at 1000 uM
In test [16] the test system is Caldicellulosiruptor saccharolyticus. To be noted: 1000 uM.
Description: Inhibition of Caldocellum saccharolyticum beta-glucosidase at 1000 uM
The species entered for test [17] is Bos taurus. To be noted: 1000 uM.
Description: Inhibition of bovine liver beta-galactosidase at 1000 uM
In test [18] the target is Lactase/phlorizin hydrolase (Rattus norvegicus) (UniProt Q02401). To be noted: Wistar, 1000 uM.
Description: Inhibition of Wistar rat intestinal lactase at 1000 uM
The species entered for test [19] is Rattus norvegicus. To be noted: Wistar, 1000 uM.
Description: Inhibition of Wistar rat intestinal alpha alpha-trehalase at 1000 uM
Test [20] addresses T3, Uncharacterized protein (Sus scrofa, UniProt I3LIR5).
T3 sequence (I3LIR5 whole entry): T1 sequence (whole entry)
The test can be described thus: Inhibition of pig kidney alpha alpha-trehalase.

pIC50, pKi: −log10 of the molar value.

Lysosomal alpha-glucosidase (Rattus norvegicus), sequence (Q6P7A9 whole entry): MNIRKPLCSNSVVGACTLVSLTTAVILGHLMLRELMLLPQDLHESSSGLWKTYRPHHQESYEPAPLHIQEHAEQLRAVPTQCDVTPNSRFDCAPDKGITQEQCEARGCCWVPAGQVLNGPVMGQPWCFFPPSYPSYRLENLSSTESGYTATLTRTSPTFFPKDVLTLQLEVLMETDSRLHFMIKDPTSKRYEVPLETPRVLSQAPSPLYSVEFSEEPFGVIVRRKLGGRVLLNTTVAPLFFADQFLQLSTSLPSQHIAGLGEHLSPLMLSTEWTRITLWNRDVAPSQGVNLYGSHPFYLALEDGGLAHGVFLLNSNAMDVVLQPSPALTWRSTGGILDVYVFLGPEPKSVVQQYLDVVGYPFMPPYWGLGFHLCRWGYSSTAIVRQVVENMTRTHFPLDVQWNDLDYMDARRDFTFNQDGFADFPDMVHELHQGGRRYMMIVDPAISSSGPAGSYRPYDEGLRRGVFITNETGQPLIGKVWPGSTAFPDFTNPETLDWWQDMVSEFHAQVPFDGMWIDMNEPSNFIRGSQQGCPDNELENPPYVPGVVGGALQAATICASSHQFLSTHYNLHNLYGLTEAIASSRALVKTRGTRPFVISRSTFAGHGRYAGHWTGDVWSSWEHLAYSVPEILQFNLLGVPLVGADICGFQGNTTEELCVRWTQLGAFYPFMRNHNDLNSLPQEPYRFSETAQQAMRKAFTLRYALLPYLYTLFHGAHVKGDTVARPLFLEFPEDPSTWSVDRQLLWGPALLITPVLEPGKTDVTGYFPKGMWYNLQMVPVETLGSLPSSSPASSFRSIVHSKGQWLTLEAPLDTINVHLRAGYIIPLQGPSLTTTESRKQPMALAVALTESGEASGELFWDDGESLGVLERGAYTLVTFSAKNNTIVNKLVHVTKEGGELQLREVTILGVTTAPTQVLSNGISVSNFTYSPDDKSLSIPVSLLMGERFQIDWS
Sucrase-isomaltase, intestinal (Rattus norvegicus), sequence (P23739 1-1013 limits assumed): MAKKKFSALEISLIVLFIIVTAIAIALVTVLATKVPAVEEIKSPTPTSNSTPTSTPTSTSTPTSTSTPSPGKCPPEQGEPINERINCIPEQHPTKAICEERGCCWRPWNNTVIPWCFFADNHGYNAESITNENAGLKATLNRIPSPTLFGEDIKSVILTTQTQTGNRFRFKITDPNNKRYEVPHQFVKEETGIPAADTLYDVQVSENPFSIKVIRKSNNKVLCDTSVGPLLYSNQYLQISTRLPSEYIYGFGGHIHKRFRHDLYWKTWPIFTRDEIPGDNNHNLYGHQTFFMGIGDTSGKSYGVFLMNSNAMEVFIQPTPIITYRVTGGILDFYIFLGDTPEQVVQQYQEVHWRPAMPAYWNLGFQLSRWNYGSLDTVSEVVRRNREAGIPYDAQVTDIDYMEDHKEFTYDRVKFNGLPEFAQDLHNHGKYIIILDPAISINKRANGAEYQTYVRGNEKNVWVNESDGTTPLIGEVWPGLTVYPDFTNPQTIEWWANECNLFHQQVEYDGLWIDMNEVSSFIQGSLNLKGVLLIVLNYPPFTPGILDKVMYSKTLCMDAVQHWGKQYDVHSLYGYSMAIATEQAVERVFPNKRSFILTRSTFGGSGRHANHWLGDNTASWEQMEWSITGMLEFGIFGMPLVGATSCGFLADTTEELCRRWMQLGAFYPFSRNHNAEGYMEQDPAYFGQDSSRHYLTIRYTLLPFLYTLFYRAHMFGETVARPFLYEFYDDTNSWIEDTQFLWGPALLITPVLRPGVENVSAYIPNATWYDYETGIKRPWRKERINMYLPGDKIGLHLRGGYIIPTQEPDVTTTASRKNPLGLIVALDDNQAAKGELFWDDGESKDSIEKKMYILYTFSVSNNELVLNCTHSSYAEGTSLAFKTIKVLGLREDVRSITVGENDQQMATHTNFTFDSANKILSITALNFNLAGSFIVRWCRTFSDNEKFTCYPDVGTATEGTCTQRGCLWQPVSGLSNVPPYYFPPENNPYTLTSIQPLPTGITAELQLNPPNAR
Sucrase-isomaltase, intestinal (Rattus norvegicus), sequence (P23739 1014-1841 limits assumed): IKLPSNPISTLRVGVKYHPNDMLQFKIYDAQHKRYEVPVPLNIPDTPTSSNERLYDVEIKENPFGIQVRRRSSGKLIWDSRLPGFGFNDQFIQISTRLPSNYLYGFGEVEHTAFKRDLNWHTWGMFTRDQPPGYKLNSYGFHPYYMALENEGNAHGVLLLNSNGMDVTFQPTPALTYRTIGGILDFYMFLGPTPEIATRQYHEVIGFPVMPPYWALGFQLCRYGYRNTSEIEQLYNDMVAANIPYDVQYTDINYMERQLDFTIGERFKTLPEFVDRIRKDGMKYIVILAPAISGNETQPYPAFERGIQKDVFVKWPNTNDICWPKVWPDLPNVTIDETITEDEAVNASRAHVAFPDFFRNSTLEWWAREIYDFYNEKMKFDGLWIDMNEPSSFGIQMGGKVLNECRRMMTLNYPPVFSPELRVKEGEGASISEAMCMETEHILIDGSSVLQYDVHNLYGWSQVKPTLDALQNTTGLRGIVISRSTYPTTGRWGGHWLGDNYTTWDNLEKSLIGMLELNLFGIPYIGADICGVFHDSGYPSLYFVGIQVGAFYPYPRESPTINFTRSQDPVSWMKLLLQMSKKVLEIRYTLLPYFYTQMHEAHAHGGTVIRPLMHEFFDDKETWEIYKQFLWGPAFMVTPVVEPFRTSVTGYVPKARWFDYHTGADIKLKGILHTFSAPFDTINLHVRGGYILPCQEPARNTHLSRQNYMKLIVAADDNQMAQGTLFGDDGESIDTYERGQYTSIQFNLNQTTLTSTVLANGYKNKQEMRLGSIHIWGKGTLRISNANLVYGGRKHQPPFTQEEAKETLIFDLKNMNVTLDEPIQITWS
Lactase/phlorizin hydrolase, sequence (Q02401 868-1928 limits assumed): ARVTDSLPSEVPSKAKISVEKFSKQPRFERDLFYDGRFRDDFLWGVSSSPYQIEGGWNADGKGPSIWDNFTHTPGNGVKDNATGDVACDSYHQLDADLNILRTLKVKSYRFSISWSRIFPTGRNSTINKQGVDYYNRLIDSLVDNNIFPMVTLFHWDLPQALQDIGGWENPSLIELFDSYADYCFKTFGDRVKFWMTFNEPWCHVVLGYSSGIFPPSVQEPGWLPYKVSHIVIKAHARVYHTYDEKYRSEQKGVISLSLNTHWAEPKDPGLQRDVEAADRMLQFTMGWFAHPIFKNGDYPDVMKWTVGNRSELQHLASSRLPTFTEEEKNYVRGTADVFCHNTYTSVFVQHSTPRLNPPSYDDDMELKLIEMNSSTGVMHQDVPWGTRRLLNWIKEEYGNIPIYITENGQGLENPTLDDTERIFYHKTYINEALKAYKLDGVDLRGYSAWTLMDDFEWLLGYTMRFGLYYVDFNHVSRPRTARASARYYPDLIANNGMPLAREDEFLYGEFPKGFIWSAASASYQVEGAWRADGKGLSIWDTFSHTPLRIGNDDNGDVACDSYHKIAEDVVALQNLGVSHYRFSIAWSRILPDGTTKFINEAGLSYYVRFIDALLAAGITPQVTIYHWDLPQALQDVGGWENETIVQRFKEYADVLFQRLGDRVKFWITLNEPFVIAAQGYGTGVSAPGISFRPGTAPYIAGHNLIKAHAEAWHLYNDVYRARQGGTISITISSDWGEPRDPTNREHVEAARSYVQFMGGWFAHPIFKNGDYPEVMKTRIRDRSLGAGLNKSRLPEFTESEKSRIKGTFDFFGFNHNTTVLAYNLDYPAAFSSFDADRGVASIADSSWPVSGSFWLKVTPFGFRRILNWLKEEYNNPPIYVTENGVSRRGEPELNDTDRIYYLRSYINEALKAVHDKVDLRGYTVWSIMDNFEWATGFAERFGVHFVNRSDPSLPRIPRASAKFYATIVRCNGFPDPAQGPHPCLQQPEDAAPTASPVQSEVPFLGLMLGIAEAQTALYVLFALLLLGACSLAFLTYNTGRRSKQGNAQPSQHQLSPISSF
Sucrase-isomaltase, intestinal, sequence (P23739 1-1013 limits assumed): as the sequence (P23739 1-1013 limits assumed) above
Sucrase-isomaltase, intestinal, sequence (P23739 1014-1841 limits assumed): as the sequence (P23739 1014-1841 limits assumed) above
Lactase/phlorizin hydrolase (Rattus norvegicus), sequence (Q02401 868-1928 limits assumed): as the sequence (Q02401 868-1928 limits assumed) above

On to `OCC[C@H]1N[C@H](CO)[C@@H](O)[C@@H]1O`, for which the pIC50 was 5.66 in [1]; 4.96 in test [2]; 3.42 in test [3]; 4.22 in [4]; 3.49 in test [5]; 3.42 in test [6]. In addition, the inhibition in test [7] and in test [8] was below 50% each time.
Regarding `OC[C@H]1N[C@H](CO)[C@@H](O)[C@@H]1O`, the pIC50 was 3.70 in test [1], 4.96 in test [3] and 5.60 in test [4]. The pKi was 5.00 in test [9] and 5.15 in test [10]. Further, the inhibition in [11] is below 50%.
With `OCC[C@H]1N[C@@H](CO)[C@H](O)[C@H]1O`, the pIC50 in test [12] was 4.30. Also, the inhibition in test [13], in test [14], in test [7], in [11], in [15] and in test [16] was below 50% throughout. The inhibition in test [17], in test [18], in test [8] and in test [19] was below 50% throughout.
For `OCC(O)[C@H]1N[C@H](CO)[C@@H](O)[C@@H]1O` (mixture of isomers), the pIC50 was 3.89 in test [1]; 3.52 in [2]; 5.42 in test [3]; 5.36 in [4]; 5.40 in [5]; 5.30 in test [20]. For the same compound, the pIC50 in test [6] is 5.70. In addition, the values for the pKi in test [9] and in [10] were 5.82 and 4.27, respectively. In addition, the inhibition in test [7] and in test [15] was below 50% in each case.

For the origin of these results see ChEMBL document CHEMBL1150882, “Nitrogen-containing furanose and pyranose analogues from Hyacinthus orientalis” (J Nat Prod, 1998).
